Reference: ChEMBL document CHEMBL1201862, “PubChem BioAssay data set” (2004)
Calls of active or inactive are those of the source.

Experiments:
[1] = molecular target: T1, High affinity choline transporter 1 (Homo sapiens, UniProt Q9GZV3); assay: CHT choline uptake inhibitors, dose response, cell-based, HEK-293 hCHT, [3H]-choline uptake (AID 652177); assay type: functional
T1 sequence (Q9GZV3 whole entry): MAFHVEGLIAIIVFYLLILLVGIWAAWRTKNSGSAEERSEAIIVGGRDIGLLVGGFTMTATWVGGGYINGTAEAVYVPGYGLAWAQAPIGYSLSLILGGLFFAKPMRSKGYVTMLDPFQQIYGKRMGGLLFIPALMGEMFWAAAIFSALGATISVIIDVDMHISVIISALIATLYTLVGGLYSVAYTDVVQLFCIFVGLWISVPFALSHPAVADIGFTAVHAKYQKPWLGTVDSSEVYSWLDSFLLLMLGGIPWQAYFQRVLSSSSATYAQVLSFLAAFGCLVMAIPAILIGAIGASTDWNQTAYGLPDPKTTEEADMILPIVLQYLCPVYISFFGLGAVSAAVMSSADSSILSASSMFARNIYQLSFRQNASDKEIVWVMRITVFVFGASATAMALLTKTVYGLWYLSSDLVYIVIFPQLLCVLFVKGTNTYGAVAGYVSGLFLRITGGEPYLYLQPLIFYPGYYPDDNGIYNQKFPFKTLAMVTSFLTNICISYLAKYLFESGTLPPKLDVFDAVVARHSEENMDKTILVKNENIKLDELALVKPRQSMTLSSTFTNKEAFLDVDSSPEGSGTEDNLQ

[2] = molecular target: E3 ubiquitin-protein ligase UHRF1 (Homo sapiens, UniProt Q96T88); assay: Counterscreen for inhibitors of 5-meCpG-binding domain protein 2 (MBD2): TRFRET-based biochemical high throughput dose response assay to identify inhibitors of binding of ubiquitin-like with PHD and ring finger domains 1 (UHRF1) to methylated oligonucleotide.
[3] = miR-122 activators in hepatoma reporter cells, dose response, cell-based, Huh7 psiCHECK-miR122, Renilla luciferase, cherry-picked (AID 651956); assay type: functional;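 also: huh7 hepatoma cells stably carrying a psiCHECK-2 miR-122 sensor plasmid; renilla luciferase signal reporting endogenous miR-122 activity after 48 h compound exposure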
[4] = molecular target: Delta-type opioid receptor (Homo sapiens, UniProt P41143); assay: Counterscreen for agonists of heterodimerization of the mu 1 (OPRM1) and delta 1 (OPRD1) opioid receptors: Luminescence-based cell-based high throughput dose response assay to identify agonists of OPRD1 homodimerization. [Related pubchem assays (depositor defined):AID504326, AID504355, AID504692, AID504904, AID504905]; assay type: functional
[5] = HEK293T cytotoxicity, dose response, cytotoxicity control for miR-122 modulator project, cell-based, inhibitor set, cherry-pick, set 2 (AID 720697); assay type: functional
Beta Lactamase = Beta Lactamase (Pseudomonas aeruginosa, UniProt Q932Y6); assay: beta-lactamase reporter inhibitor potency, dose response, artefact control for NOD2-RIPK2 interaction inhibitor project, BLA reporter cells, FRET fluorescence (AID 651552); assay type: functional, cell-based
[6] = HeLa cell cytotoxicity, dose response, cytotoxicity control for MgcRacGAP inhibitor project (AID 624300); assay type: functional
[7] = molecular target: T2, Rac GTPase-activating protein 1 (Homo sapiens, UniProt Q9H0H5); assay: MgcRacGAP GTPase-activating activity inhibitors, confirmation, biochemical, ADP Hunter fluorescence, primary and confirmatory (AID 624330); assay type: functional
T2 sequence (Q9H0H5 whole entry): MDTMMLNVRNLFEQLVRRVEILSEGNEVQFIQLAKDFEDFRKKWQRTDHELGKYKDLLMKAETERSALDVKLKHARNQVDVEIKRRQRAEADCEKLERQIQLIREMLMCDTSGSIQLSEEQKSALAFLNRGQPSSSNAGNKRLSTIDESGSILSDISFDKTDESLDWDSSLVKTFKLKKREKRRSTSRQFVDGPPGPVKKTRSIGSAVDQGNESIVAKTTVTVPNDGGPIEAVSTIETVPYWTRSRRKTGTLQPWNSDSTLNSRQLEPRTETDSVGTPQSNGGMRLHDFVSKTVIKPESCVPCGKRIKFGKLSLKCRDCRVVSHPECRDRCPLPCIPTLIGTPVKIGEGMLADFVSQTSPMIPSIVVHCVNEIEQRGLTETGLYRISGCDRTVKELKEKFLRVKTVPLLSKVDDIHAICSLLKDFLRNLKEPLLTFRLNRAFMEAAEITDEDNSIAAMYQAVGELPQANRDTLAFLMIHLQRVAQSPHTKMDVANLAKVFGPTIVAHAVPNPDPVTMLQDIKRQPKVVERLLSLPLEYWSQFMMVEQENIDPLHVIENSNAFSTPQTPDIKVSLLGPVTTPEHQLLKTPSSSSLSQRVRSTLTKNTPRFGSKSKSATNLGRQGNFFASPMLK

[8] = Fluorescence-based cell-based high throughput dose response assay for inhibitors of the interaction of nucleotide-binding oligomerization domain containing 2 (NOD2) and the receptor-interacting serine-threonine kinase 2 (RIPK2).; assay type: functional; settings: Homo sapiens
[9] = molecular target: 5-hydroxytryptamine receptor 5A (Homo sapiens, UniProt P47898); assay: Counterscreen for agonists of OPRM1-OPRD1 heterodimerization: luminescence-based cell-based high throughput dose response assay to identify agonists of 5-hydroxytryptamine (serotonin) 5A receptor (HTR5A). [Related pubchem assays (depositor defined):AID504326, AID504355, AID504692, AID504904, AID504905]; assay type: functional
Mu-type opioid receptor = Mu-type opioid receptor (Homo sapiens, UniProt P35372); assay: Counterscreen for agonists of heterodimerization of the mu 1 (OPRM1) and delta 1 (OPRD1) opioid receptors: Luminescence-based cell-based high throughput dose response assay to identify agonists of OPRM1 homodimerization.; assay type: functional;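 also: U2OS cells expressing OPRM1 and beta-arrestin as split beta-galactosidase partners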
[10] = HepG2 cell cytotoxicity, dose response, cytotoxicity control, ATP luminescence, cherry-pick, activator set 2 (AID 1053143); assay type: functional, cell-based
[11] = molecular target: NAD-dependent protein deacylase sirtuin-5, mitochondrial (Homo sapiens, UniProt Q9NXA8); assay: SIRT5 desuccinylase inhibitors, dose response, biochemical, fluorescence imaging, cherry-pick, set 5 (AID 720591);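 also: desuccinylation of succinyl peptide AMC substrate read as fluorescence after trypsin release; potency of inhibitors that lower fluorescence and may act on trypsin instead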
[12] = molecular target: Induced myeloid leukemia cell differentiation protein Mcl-1 (Homo sapiens, UniProt Q07820); assay type: functional
[13] = system: Streptococcus sp. 'group A'; assay: growth inhibition of control SK(-) GAS strain, dose response, counter-screen for streptokinase expression inhibitor project, luminescence, kanamycin, BacTiterGlo, confirmation (AID 1900); assay type: functional, organism-based
Streptococcus = assay: Group A Streptococcus viability loss, dose response, counter-screen for streptokinase expression inhibitor project, luminescence, BacTiterGlo (AID 1915); assay type: functional, organism-based;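 also: potency for reduction of bacterial viability or growth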
[14] = human group III sPLA2 inhibitors, dose response, biochemical, QFRET, IC50 (AID 743457);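 also: green fluorescence rise as the enzyme cleaves BODIPY PC-A2 in liposomes; potency for inhibition of the enzyme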
[15] = Counterscreen for antagonists of the human trace amine associated receptor 1 (hTAAR1): Fluorescence-based cell-based high throughput dose response assay to identify nonselective Ga16 antagonists.; assay type: functional
[16] = molecular target: T3, Trace amine-associated receptor 1 (Homo sapiens, UniProt Q96RJ0); assay: Fluorescence-based cell-based high throughput dose response assay to identify antagonists of the human trace amine associated receptor 1 (TAAR1).; assay type: functional
T3 sequence (Q96RJ0 whole entry): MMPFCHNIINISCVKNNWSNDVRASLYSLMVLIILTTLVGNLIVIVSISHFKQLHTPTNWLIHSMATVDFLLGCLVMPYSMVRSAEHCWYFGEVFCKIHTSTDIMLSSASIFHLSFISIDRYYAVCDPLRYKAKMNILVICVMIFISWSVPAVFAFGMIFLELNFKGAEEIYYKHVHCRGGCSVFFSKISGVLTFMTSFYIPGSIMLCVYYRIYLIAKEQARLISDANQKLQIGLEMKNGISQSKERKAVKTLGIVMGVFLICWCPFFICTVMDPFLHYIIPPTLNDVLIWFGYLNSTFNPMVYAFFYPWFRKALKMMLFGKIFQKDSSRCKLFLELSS

[17] = Counterscreen for […] of the human trace amine associated receptor 1 (TAAR1): Fluorescence-based cell-based high throughput dose response assay to identify nonselective Ga16 agonists.; assay type: functional
[18] = molecular target: T3, Trace amine-associated receptor 1; assay: Counterscreen for antagonists of the human trace amine associated receptor 1 (hTAAR1): Fluorescence-based cell-based high throughput dose response assay to identify TAAR1 Agonists.; assay type: functional
[19] = HepG2 cell cytotoxicity, dose response, cytotoxicity control, cherry-picks, set 5 (AID 1053118); assay type: functional, cell-based
[20] = P. falciparum ATP4 D1247Y mutant growth inhibitors, dose response, NITD609-resistant line, SYBR Green, dry powder (AID 1159571); assay type: functional, cell-based;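 also: parasites synchronized at ring stage by sorbitol before testing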
[21] = P. falciparum Dd2 growth inhibitors, dose response, SYBR Green, cherry-picked samples (AID 1159567); assay type: functional, cell-based
[22] = P. falciparum 3D7-ScDHODH growth inhibitors, dose response, SYBR Green, dry powder samples (AID 1159570); assay type: functional, cell-based;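 also: parasite growth measured after 72 hours of compound exposure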
[23] = A549 cell cytotoxicity, dose response, cytotoxicity control, cherry-picks, 26 µM top dose (AID 1053119); assay type: functional, cell-based
[24] = HEK293 cell cytotoxicity, dose response, cytotoxicity control, cherry-picks, set 5 (AID 1053117); assay type: functional, cell-based
[25] = HepG2 cell cytotoxicity, dose response, cytotoxicity control, plate reader, dry powder samples (AID 1159569); assay type: functional, cell-based;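 also: inhibitor potency with signal falling toward the positive control level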
[26] = P. falciparum Dd2 growth inhibitors, dose response, SYBR Green, dry powder samples (AID 1159566); assay type: functional, cell-based;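 also: potency for growth inhibition with lower SYBR green DNA signal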
Paired box protein Pax-8 = Paired box protein Pax-8 (Homo sapiens, UniProt Q06710); assay: inhibitors of PAX8-driven TPO luciferase reporter, dose response, RMG-I cells, cherry-pick (AID 687027); assay type: functional, cell-based;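 also: luciferase reporter driven by Pax8 target thyroperoxidase promoter measured by SteadyGlo luminescence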
[27] = non-specific cell cytotoxicity, dose response, cytotoxicity control for PAX8 inhibitor project, plate reader, dry powder samples (AID 743021); assay type: functional, cell-based
[28] = molecular target: Potassium channel subfamily K member 9 (Homo sapiens, UniProt Q9NPC2); assay: TASK3 (KCNK9) channel inhibitors, thallium flux, SAR follow-up, selectivity assay for TASK1 inhibitor project, cell-based, FluxOR thallium flux, concentration-response (AID 652211); assay type: functional;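 also: potency is for inhibitors of the channel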
[29] = molecular target: Potassium channel subfamily K member 3 (Rattus norvegicus, UniProt O54912); assay: SAR analysis for the identification of selective inhibitors of the two-pore domain potassium channel TASK1(KCNK3):Automated Electrophysiology.; assay type: functional
[30] = A549 cell cytotoxicity, dose response, cytotoxicity control, CellTiter-Glo luminescence, dry powder, set 3 (AID 743146); assay type: functional, cell-based
[31] = HEK293 cell cytotoxicity, dose response, cytotoxicity control, ATP luminescence, dry powder, Set6 (AID 743142); assay type: functional, cell-based
[32] = Luminescence Cell-Based Dose Retest to Confirm Inhibitors of Cancer Stem Cells. [Related pubchem assays (depositor defined):AID2717, AID2721]; assay type: functional; settings: Homo sapiens
A549 = assay: A549 cell toxicity, dose response, cytotoxicity control, plate reader, cherry-pick samples (AID 687028); assay type: functional, cell-based; settings: Homo sapiens
Vero = assay: Vero cell toxicity, dose response, cytotoxicity control, plate reader, cherry-pick samples (AID 687020); assay type: functional, cell-based; settings: Chlorocebus sabaeus
BHK-21 = assay: BHK-21 cell toxicity, dose response, cytotoxicity control, plate reader, cherry-pick samples (AID 687030); assay type: functional, cell-based; settings: Mesocricetus auratus

Potassium channel subfamily K member 3, sequence (O54912 whole entry, the tested form may be a part): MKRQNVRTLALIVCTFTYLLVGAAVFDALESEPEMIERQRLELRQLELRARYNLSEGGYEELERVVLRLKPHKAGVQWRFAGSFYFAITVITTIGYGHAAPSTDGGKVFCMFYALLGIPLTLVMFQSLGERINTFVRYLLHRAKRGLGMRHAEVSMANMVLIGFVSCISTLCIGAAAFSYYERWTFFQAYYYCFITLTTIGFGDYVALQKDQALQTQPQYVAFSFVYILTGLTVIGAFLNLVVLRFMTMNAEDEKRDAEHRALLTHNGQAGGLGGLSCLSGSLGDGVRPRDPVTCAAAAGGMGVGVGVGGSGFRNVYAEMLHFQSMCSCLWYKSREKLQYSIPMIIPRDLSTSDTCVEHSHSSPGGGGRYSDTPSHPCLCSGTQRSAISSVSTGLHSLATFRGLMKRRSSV
Delta-type opioid receptor, sequence (P41143 whole entry): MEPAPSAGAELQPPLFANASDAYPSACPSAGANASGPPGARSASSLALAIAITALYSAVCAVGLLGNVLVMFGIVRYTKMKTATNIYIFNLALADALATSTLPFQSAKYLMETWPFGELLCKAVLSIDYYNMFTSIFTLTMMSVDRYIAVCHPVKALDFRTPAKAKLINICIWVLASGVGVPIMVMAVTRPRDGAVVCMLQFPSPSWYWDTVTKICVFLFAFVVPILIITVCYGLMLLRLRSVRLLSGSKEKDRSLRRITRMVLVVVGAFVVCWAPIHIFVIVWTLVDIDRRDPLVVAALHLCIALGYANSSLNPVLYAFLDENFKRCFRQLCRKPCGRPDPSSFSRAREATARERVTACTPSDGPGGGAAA
Induced myeloid leukemia cell differentiation protein Mcl-1, sequence (Q07820 whole entry): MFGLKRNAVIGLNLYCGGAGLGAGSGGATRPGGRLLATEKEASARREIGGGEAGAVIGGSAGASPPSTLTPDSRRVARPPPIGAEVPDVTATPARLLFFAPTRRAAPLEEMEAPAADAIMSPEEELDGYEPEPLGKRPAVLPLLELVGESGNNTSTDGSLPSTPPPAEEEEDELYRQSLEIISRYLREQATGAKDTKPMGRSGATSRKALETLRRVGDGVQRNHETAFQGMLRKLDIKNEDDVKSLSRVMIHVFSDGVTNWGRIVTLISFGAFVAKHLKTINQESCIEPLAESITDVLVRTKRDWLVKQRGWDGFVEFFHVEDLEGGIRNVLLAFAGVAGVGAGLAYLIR
5-hydroxytryptamine receptor 5A, sequence (P47898 whole entry): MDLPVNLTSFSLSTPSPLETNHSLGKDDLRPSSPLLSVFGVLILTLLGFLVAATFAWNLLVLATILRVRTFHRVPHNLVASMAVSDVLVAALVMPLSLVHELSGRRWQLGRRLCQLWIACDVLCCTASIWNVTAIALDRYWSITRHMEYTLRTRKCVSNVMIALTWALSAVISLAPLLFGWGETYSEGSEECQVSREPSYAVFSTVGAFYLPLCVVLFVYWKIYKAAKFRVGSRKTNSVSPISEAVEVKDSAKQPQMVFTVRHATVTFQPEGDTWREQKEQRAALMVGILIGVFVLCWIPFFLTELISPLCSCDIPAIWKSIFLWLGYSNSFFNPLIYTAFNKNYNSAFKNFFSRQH
Mu-type opioid receptor, sequence (P35372 whole entry): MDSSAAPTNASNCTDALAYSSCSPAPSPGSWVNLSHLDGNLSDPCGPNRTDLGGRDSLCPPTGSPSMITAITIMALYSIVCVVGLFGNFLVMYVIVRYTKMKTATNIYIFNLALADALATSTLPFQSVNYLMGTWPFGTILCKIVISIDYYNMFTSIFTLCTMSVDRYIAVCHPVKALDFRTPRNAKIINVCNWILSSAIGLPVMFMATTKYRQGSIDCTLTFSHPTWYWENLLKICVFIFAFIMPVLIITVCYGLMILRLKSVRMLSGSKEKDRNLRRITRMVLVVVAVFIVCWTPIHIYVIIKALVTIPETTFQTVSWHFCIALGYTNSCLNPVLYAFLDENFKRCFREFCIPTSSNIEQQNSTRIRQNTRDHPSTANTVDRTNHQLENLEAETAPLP
Paired box protein Pax-8, sequence (Q06710 whole entry): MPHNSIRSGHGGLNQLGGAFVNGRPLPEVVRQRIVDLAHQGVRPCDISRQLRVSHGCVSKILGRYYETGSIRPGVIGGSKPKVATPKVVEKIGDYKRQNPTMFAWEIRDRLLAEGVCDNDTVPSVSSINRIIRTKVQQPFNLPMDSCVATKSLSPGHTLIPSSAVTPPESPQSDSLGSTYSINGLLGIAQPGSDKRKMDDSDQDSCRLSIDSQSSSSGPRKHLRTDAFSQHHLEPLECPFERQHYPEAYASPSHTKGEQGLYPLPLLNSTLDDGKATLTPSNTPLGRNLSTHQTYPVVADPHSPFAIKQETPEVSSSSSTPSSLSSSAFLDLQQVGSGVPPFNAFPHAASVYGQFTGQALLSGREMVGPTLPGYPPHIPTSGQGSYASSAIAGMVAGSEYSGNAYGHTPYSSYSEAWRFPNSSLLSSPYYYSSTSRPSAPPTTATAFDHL
NAD-dependent protein deacylase sirtuin-5, mitochondrial, sequence (Q9NXA8 whole entry): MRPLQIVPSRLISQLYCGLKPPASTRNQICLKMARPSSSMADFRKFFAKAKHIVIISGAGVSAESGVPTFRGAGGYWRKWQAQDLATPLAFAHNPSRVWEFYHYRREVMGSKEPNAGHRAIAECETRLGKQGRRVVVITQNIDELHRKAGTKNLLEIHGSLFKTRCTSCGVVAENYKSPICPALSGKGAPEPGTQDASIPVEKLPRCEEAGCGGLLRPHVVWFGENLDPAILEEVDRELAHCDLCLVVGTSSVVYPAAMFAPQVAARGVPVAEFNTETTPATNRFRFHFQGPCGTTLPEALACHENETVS
E3 ubiquitin-protein ligase UHRF1, sequence (Q96T88 whole entry, the tested form may be a part): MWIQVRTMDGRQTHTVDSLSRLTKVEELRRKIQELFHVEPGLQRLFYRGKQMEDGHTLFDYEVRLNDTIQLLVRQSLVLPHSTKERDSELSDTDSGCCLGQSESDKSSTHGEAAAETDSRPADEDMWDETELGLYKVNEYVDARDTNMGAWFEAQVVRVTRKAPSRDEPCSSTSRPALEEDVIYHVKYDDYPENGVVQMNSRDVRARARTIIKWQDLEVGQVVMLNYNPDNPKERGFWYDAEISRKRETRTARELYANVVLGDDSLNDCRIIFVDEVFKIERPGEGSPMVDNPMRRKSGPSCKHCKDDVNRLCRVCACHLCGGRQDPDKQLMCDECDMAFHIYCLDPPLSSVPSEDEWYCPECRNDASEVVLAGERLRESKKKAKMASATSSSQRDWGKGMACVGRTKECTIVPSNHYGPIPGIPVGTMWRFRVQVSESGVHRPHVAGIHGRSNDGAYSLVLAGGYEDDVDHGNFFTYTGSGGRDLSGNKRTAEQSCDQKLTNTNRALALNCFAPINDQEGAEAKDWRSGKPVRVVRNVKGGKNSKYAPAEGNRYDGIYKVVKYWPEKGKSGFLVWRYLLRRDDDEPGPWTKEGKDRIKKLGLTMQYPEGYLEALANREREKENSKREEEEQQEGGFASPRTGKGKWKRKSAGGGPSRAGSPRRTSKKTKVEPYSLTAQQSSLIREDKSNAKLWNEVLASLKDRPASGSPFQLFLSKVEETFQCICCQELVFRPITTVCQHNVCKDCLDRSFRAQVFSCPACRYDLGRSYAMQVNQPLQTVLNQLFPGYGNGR
Potassium channel subfamily K member 9, sequence (Q9NPC2 whole entry, the tested form may be a part): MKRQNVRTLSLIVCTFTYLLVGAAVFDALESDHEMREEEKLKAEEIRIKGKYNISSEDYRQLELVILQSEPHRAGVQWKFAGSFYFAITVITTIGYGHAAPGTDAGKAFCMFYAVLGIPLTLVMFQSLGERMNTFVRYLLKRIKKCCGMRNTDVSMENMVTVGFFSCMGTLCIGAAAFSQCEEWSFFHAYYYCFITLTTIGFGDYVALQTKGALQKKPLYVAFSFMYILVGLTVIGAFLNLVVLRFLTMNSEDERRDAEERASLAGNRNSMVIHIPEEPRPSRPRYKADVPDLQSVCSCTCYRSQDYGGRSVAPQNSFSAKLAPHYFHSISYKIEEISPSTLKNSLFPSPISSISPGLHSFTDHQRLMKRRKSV
Beta Lactamase, sequence (Q932Y6 whole entry): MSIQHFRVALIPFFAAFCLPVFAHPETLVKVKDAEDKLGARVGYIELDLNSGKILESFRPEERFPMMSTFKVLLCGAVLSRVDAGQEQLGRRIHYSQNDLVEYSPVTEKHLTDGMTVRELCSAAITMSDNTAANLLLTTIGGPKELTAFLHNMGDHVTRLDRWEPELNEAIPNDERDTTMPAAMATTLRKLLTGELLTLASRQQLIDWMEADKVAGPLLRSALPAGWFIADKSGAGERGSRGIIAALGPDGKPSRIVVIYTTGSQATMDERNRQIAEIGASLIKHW

## COc1ccc(C(=O)NC(C)Cc2ccccn2)cc1OC1CCN(C(C)C)CC1 (centres undefined)
[1]
  IC50: 4.6 µM (active)

## Cc1cc2[nH]c3c4ccccc4nc(C)c3c2cc1C
[2]
  IC50: 19 µM (inactive)
[3]
  AC50: 10.8 µM (active)
[4]
  EC50: > 92.4 µM (inactive)
[5]
  AC50: 3.57 µM (active)
Beta Lactamase
  IC50: 23.6 µM (inactive)
[6]
  CC50: 12.4 µM (active)
[7]
  IC50: 38.9 µM (active)
[8]
  IC50: 15.5 µM (inactive)
[9]
  EC50: > 92.4 µM (inactive)
Mu-type opioid receptor
  EC50: > 92.4 µM (inactive)

## O=C(Nc1ccc(F)cc1)c1ccc2nsnc2c1
[10]
  AC50: > 52 µM (inactive)

## Cc1noc(C)c1NC(=O)N(C)C[C@@H]1Oc2cc(Br)ccc2S(=O)(=O)N([C@@H](C)CO)C[C@H]1C
[11]
  AC50: > 30 µM (inactive)

## Cc1cccc(C(=O)NC(=S)NNC(=O)c2ccc(Cl)cc2)c1
[12]
  IC50: 25.8 µM (not active)
[13]
  EC50: 0.362 µM (active)
Streptococcus
  EC50: 1.09 µM (active)
[14]
  IC50: 21.9 µM (inactive)

## NC(=O)COc1cccc(/C=N/NC(=O)c2ccc(-n3cccc3)cc2)c1
[15]
  IC50: > 29.9 µM (inactive)
[16]
  IC50: > 1.11 µM (active)
[17]
  EC50: > 29.9 µM (inactive)
[18]
  EC50: > 29.9 µM (inactive)

## CO[C@H]1CN(C)C(=O)c2cc(NC(=O)Nc3ccc(C(F)(F)F)cc3)ccc2OC[C@H](C)NC[C@H]1C
[19]
  AC50: > 52 µM (inactive)
[20]
  AC50: 2.76 µM (active)
[21]
  AC50: 2.49 µM (active)
[22]
  AC50: 1.37 µM (active)
[23]
  AC50: > 52 µM (inactive)
[24]
  AC50: > 52 µM (inactive)
[25]
  AC50: 19.2 µM (active)
[26]
  AC50: 1.56 µM (active)

## COc1ccc(S(=O)(=O)Nc2ccc3c(c2)C(=O)N([C@@H](C)CO)C[C@@H](C)[C@H](CN(C)Cc2ccc(C(F)(F)F)cc2)OCCCC[C@H](C)O3)cc1
Paired box protein Pax-8
  AC50: 10.8 µM (active)
[27]
  AC50: 45.4 µM (active)

## CCOc1ccccc1C(=O)Nc1cccc(NC(=O)c2ccccc2C(F)(F)F)c1
[28]
  IC50: 1.04 µM (active)
[29]
  IC50: 0.01 µM (active)

## O=C(CCNC(=O)c1ccc(OC(F)(F)F)cc1)N[C@@H]1CCCc2ccccc21
[30]
  AC50: 26 µM (active)
[31]
  AC50: 6.21 µM (active)

## CC1CCCN(CCCOc2ccc(Br)cc2Cl)C1 (centres undefined)
[32]
  AC50: 8.98 µM (active)
A549
  AC50: 27.2 µM (active)
Vero
  AC50: 25.2 µM (active)
BHK-21
  AC50: 38.8 µM (active)
